According to publication PMC7044277 (Nature Communications, 2020):
Several values for one entry are separate records, joined by “and”; a condition that tells them apart may be missing. Identical values can stand only once.

Columns and labels:
Test in all cases: β-arrestin2 recruitment (Tango)
Assay type in all cases: cell-based
5HT2C = molecular target: T1, 5HT2C (Homo sapiens, UniProt P28335); conditions: Fig_S10m; for β-arrestin2 recruitment response in presence of serotonin (replicate values): +10μM serotonin; for β-arrestin2 recruitment response (dose-response source data, replicate values): drug alone
T1 sequence (P28335 33-458): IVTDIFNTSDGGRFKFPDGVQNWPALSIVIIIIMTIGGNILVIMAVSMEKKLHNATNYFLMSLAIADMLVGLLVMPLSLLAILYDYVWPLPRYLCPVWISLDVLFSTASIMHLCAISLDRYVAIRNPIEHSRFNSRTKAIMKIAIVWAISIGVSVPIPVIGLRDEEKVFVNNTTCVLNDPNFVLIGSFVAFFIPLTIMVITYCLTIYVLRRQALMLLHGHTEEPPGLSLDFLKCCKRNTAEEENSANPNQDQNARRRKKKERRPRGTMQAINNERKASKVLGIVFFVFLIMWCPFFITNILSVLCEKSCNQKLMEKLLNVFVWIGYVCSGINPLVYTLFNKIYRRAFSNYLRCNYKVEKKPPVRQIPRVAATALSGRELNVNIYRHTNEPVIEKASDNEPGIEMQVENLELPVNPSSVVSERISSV

5HT6 = molecular target: T2, 5HT6 (Homo sapiens, UniProt P50406); conditions: Fig_S10p, agonist mode
T2 construct: expressed in transfected cells; host or cells: HTLA cells expressing TEV-fused β-arrestin2
T2 sequence (P50406 whole entry, the tested form may be a part): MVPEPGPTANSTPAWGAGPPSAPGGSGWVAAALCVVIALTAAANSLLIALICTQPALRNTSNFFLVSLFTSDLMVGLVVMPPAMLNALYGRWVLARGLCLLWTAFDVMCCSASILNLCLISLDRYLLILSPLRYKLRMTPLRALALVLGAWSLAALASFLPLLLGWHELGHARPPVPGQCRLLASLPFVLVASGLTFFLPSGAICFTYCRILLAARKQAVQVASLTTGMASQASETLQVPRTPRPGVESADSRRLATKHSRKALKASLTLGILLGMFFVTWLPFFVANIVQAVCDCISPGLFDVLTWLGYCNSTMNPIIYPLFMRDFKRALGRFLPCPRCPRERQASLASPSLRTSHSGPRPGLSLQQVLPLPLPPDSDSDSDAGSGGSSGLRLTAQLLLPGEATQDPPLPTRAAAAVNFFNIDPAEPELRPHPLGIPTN

5HT7A = molecular target: T3, 5HT7A (Homo sapiens, UniProt P34969); conditions: for β-arrestin2 recruitment response, replicate points of concentration-response curve: Fig_S10q, agonist mode
T3 construct: expressed in transfected cells; host or cells: HTLA cells expressing TEV-fused β-arrestin2
T3 sequence (P34969 1-445 isoform P34969-2): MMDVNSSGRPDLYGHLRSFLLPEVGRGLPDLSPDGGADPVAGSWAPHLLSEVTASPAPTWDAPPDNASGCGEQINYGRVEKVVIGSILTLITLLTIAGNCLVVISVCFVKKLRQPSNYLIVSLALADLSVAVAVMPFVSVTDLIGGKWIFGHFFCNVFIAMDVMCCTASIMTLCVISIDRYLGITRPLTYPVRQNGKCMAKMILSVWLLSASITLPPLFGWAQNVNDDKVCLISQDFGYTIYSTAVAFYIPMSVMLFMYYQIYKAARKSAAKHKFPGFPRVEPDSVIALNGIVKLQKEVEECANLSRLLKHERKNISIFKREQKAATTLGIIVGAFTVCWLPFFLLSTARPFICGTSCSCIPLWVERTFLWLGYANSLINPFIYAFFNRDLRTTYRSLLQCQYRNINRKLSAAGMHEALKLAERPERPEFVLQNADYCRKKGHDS

CCOc1cccc2cc([C@H](C)NCC3(O)CCCCC3)oc12 [O4SE6]
β-arrestin2 recruitment response in presence of serotonin (replicate values) (5HT2C; Log[Drug] -8): 70.2712 and 69.291 and 73.2872 and 71.712 and 66.0148 and 66.2452 and 79.2674 and 70.1943 and 78.2394
β-arrestin2 recruitment response (dose-response source data, replicate values) (5HT2C; Log[Drug] -8): -1.7418 and -1.636 and 0.2046 and 0.909 and -0.4958 and 0.1891 and 1.914 and -0.383 and 4.332
β-arrestin2 recruitment response in presence of serotonin (replicate values) (5HT2C; Log[Drug] -8.52): 72.9942 and 69.4566 and 60.9768 and 61.1778 and 82.5318 and 58.5381 and 71.529 and 76.0793 and 77.135
β-arrestin2 recruitment response (dose-response source data, replicate values) (5HT2C; Log[Drug] -8.52): -0.5405 and -0.709 and 2.709 and 0.684 and 1.936 and 3.627 and 2.573 and 6.06 and -0.7082
β-arrestin2 recruitment response in presence of serotonin (replicate values) (5HT2C; Log[Drug] -9): 65.7886 and 59.3306 and 51.1636 and 117.587 and 77.0604 and 77.3487 and 69.8244 and 87.7165 and 82.2092
β-arrestin2 recruitment response (dose-response source data, replicate values) (5HT2C; Log[Drug] -9): -2.125 and 1.403 and -1.228 and 0.9062 and -0.6032 and 0.5546 and 2.207 and 4.8202 and 4.806
β-arrestin2 recruitment response in presence of serotonin (replicate values) (5HT2C; Log[Drug] -9.52): 71.3301 and 78.8962 and 71.9628 and 82.1452 and 81.8826 and 58.8025 and 76.3992 and 91.8022 and 69.3558
β-arrestin2 recruitment response (dose-response source data, replicate values) (5HT2C; Log[Drug] -9.52): -0.7505 and -1.198 and -1.073 and 2.378 and 0.7896 and 2.704 and -0.6423 and 0.9477 and 0.7345
β-arrestin2 recruitment response, replicate points of concentration-response curve (5HT6; Log[Drug] -6): -0.3035
β-arrestin2 recruitment response, replicate points of concentration-response curve (5HT6; Log[Drug] -6.52): 1.0135 and 1.198 and 5.246 and -9.543 and -10.288 and -8.77 and 1.1615 and -3.588 and -1.1467
β-arrestin2 recruitment response, replicate points of concentration-response curve (5HT6; Log[Drug] -7): 1.87 and 1.848 and 8.574 and -11.7696 and -2.512 and -8.797 and 0.1776 and -4.113 and -5.009
β-arrestin2 recruitment response, replicate points of concentration-response curve (5HT6; Log[Drug] -7.52): 1.593 and -0.504 and 0.09756 and -12.1009 (2×) and -11.7328 and 60.6717 and -4.6608 and -1.753
β-arrestin2 recruitment response, replicate points of concentration-response curve (5HT6; Log[Drug] -8): 1.669 and -1.382 and -0.2872 and -13.1683 and -12.0825 and -9.524 and -3.196 and -2.353 and 1.768
β-arrestin2 recruitment response, replicate points of concentration-response curve (5HT6; Log[Drug] -8.52): 0.775 and 4.666 and 0.9864 and -12.4781 and -7.656 and -12.1009 and 0.3255 and -3.854 and 3.566
β-arrestin2 recruitment response, replicate points of concentration-response curve (5HT6; Log[Drug] -9): 2.499 and 9.663 and 0.775 and -0.2945 and -9.561 and -9.543 and -2.049 and -4.424 and -4.173
β-arrestin2 recruitment response, replicate points of concentration-response curve (5HT6; Log[Drug] -9.52): -0.09214 and 0.5474 and -0.9647 and -12.1929 and -11.3831 and -2.5214 and -5.0455 and -0.3107 and 5.623
β-arrestin2 recruitment response, replicate points of concentration-response curve (5HT6; Log[Drug] -10): 3.149 and 2.721 and -0.1138 and 8.135 and -9.598 and -12.4689 and 1.768 and 2.893 and -2.7151
β-arrestin2 recruitment response, replicate points of concentration-response curve (5HT6; Log[Drug] -10.52): 2.504 and 5.311 and 0.7425 and -10.7297 and -3.616 and -12.1193 and -4.52 and 13.3166 and 0.2515
β-arrestin2 recruitment response, replicate points of concentration-response curve (5HT6; Log[Drug] -11): 0.5474 and 6.401 and -0.2981 and -6.662 and -9.929 and -5.0796 and -2.915 and -3.588 and -2.353
β-arrestin2 recruitment response, replicate points of concentration-response curve (5HT6; Log[Drug] -11.52): 1.409 and 4.46 and -0.7262 and -4.371 and -12.837 and -12.1009 and -3.803 and -3.24 and -3.847
concentration at which the receptor is activated (5HT7A; 5HT7A, agonist activity only at high concentrations): over 1 μM
β-arrestin2 recruitment response, replicate points of concentration-response curve (5HT7A; Log[Drug] -8.52): -17.0653 and -8.2658 and 45.2148 and -20.2418 and -21.803 and -0.7194 and -2.896 and -5.6 and 11.1273 and 4.271 and -5.097 and 41.8171
β-arrestin2 recruitment response, replicate points of concentration-response curve (5HT7A; Log[Drug] -9): -5.443 and 2.933 and -8.226 and -2.556 and -7.477 and 46.4452 and 15.6099 and 24.9983 and 34.962 and -18.0177 and 28.5192 and 18.5487
β-arrestin2 recruitment response, replicate points of concentration-response curve (5HT7A; Log[Drug] -9.52): -12.1477 and -17.9982 and -14.9702 and 11.6094 and 28.1779 and -35.8001 and 6.565 and -15.7686 and -5.626 and -8.555 and 44.6962 and -16.9086
β-arrestin2 recruitment response, replicate points of concentration-response curve (5HT7A; Log[Drug] -10): 8.096 and 0.4862 and 3.854 and 5.12 and -39.6418 and 11.9538 and 0.1785 and 14.2612 and 32.5752 and 35.9646 and 2.796 and -2.0885
β-arrestin2 recruitment response, replicate points of concentration-response curve (5HT7A; Log[Drug] -10.52): -7.874 and -13.6459 and -8.622 and -2.931 and 11.0507 and -27.4126 and -0.1587 and -15.0413 and -19.8744 and -43.7994 and 23.1032 and 11.941
β-arrestin2 recruitment response, replicate points of concentration-response curve (5HT7A; Log[Drug] -11): -18.3698 and 12.5825 and -5.609 and -19.6985 and -4.821 and 50.3406 and -7.299 and -5.302 and 7.068 and 22.7847 and 5.345 and 29.9587
β-arrestin2 recruitment response, replicate points of concentration-response curve (5HT7A; Log[Drug] -11.52): -11.7405 and -3.06 and 5.3959 and -7.492 and 32.3027 and 44.3713 and -10.4331 and 15.1471 and 38.5521 and -11.882 and -21.4277 and -18.6431
β-arrestin2 recruitment response, replicate points of concentration-response curve (5HT7A; Log[Drug] -12): -10.8669 and -8.214 and -4.091 and -12.7879 and 18.5659 and 87.5029 and 6.479 and 24.6612 and 1.765 and 32.6018 and 45.9115 and -9.546
